# Where a SMILES comes first, the peptide text is derived from it. [ ]: non-standard residue; d: D form. The star is where a group is joined. NHCH2CH2OH = OCCN*; For = O=C*
# What was measured:
# [1] = system: P388 mouse leukemia cells; settings: 92 h
# Summary of the method: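 P388 cells at 1 × 10^4 cells/mL (final) were exposed to library peptides (stocks diluted 250-fold in RPMI1640/10% FBS) for 92 h at 37 °C, 5% CO2. Viable cells were counted by WST-1/1-methoxy PMS (4 h), absorbance 415 nm, and expressed as cell viability (%).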
# [2] = system: Streptococcus pyogenes SSI-9; assay: Antibacterial activity assay of bead-derived peptides (three concentrations); format: cell-based; design: key: +++: inhibition by the 640-fold diluted peptide solution; ++: inhibition by the 160-fold diluted solution; +: inhibition by the 40-fold diluted solution; -: no inhibition; settings: S. pyogenes, bead-derived peptide solution, three concentrations
# Summary of the method: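 Undiluted, 4-fold and 16-fold DMSO-diluted peptide stocks; S. pyogenes SSI-9, 2 × 10^5 CFU, cation-adjusted MHB (50 mg/L Ca2+, 25 mg/L Mg2+) + 5% laked horse blood; 37 °C, 18 h; readout = cell pellet visible or not.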
# [3] = H+/Na+ transport assay of bead-derived peptides (one-point); format: biochemical; design: key: relative activity; mean of two control wells = 1.00; settings: bead-derived peptide solution, EYPC/EYPG LUVs;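 note: relative to parent gramicidin A activity set to 1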
# Summary of the method: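 One-point screen: peptide + pyranine-loaded LUVs, 30 min RT with vortexing, 96-well. Read-out is fluorescence intensity scaled as 100 × (Ix – I0)/(Imax – I0). Imax from Triton X-100, I0 from untreated vesicles, and the mean of the two control wells is set to 1.00.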
SMILES,cell viability/% [1],antibacterial activity [2],H+/Na+ transport activity normalized against the value of 1 (1.00) [3]
CNC(=O)C[C@@H](NC(=O)[C@H](Cc1c[nH]c2ccccc12)NC(=O)[C@@H](CC(C)C)NC(=O)[C@H](Cc1c[nH]c2ccccc12)NC(=O)[C@@H](CC(C)C)NC(=O)[C@H](Cc1c[nH]c2ccccc12)NC(=O)[C@H](NC(=O)[C@@H](NC(=O)[C@H](NC(=O)[C@H](C)NC(=O)[C@@H](CC(C)C)NC(=O)[C@H](C)NC(=O)CNC(=O)[C@@H](NC=O)C(C)C)C(C)C)C(C)C)C(C)C)C(=O)N[C@@H](Cc1c[nH]c2ccccc12)C(=O)NCCO [compound 2020] (For-VGA[dL]A[dV]V[dV]W[dL]W[dL]W[dD](NHMe)W-NHCH2CH2OH),100.0%,-,1.02
CC(C)C[C@@H](NC(=O)[C@H](C)NC(=O)CNC(=O)[C@@H](NC=O)C(C)C)C(=O)N[C@@H](C)C(=O)N[C@@H](C(=O)N[C@H](C(=O)N[C@@H](C(=O)N[C@@H](Cc1c[nH]c2ccccc12)C(=O)N[C@@H](C(=O)N[C@@H](Cc1c[nH]c2ccccc12)C(=O)N[C@H](CC(C)C)C(=O)N[C@@H](Cc1c[nH]c2ccccc12)C(=O)N[C@H](CC(C)C)C(=O)N[C@@H](Cc1c[nH]c2ccccc12)C(=O)NCCO)C(C)C)C(C)C)C(C)C)C(C)C [compound 2082] (For-VGA[dL]A[dV]V[dV]W[dV]W[dL]W[dL]W-NHCH2CH2OH),100.0%,+,1.16
CC(C)C[C@@H](NC(=O)[C@H](Cc1c[nH]c2ccccc12)NC(=O)[C@H](NC(=O)[C@H](Cc1c[nH]c2ccccc12)NC(=O)[C@@H](CC(C)C)NC(=O)[C@@H](NC(=O)[C@H](NC(=O)[C@H](C)NC(=O)[C@H](NC(=O)[C@H](C)NC(=O)CNC(=O)[C@@H](NC=O)C(C)C)C(C)C)C(C)C)C(C)C)C(C)C)C(=O)N[C@@H](Cc1c[nH]c2ccccc12)C(=O)N[C@@H](C(=O)N[C@@H](Cc1c[nH]c2ccccc12)C(=O)NCCO)C(C)C [compound 2120] (For-VGA[dV]A[dV]V[dL]W[dV]W[dL]W[dV]W-NHCH2CH2OH),17.0%,++,1.24
CC(C)C[C@@H](NC(=O)[C@H](C)NC(=O)CNC(=O)[C@@H](NC=O)C(C)C)C(=O)N[C@@H](C)C(=O)N[C@H](CC(C)C)C(=O)N[C@H](C(=O)N[C@@H](C(=O)N[C@@H](Cc1c[nH]c2ccccc12)C(=O)N[C@@H](C(=O)N[C@@H](Cc1c[nH]c2ccccc12)C(=O)N[C@H](CC(C)C)C(=O)N[C@@H](Cc1c[nH]c2ccccc12)C(=O)N[C@H](CC(C)C)C(=O)N[C@@H](Cc1c[nH]c2ccccc12)C(=O)NCCO)C(C)C)[C@H](C)O)C(C)C [compound 2158] (For-VGA[dL]A[dL]V[dT]W[dV]W[dL]W[dL]W-NHCH2CH2OH),100.0%,-,1.18
CC(C)C[C@@H](NC(=O)[C@H](C)NC(=O)CNC(=O)[C@@H](NC=O)C(C)C)C(=O)N[C@@H](C)C(=O)N[C@@H](C(=O)N[C@H](C(=O)N[C@@H](C(=O)N[C@@H](Cc1c[nH]c2ccccc12)C(=O)N[C@H](CC(C)C)C(=O)N[C@@H](Cc1c[nH]c2ccccc12)C(=O)N[C@H](CC(C)C)C(=O)N[C@@H](Cc1c[nH]c2ccccc12)C(=O)N[C@H](CC(C)C)C(=O)N[C@@H](Cc1c[nH]c2ccccc12)C(=O)NCCO)[C@H](C)O)C(C)C)C(C)C [compound 2172] (For-VGA[dL]A[dV]V[dT]W[dL]W[dL]W[dL]W-NHCH2CH2OH),100.0%,+,1.22
CC(C)C[C@@H](NC(=O)[C@H](Cc1c[nH]c2ccccc12)NC(=O)[C@H](NC(=O)[C@H](Cc1c[nH]c2ccccc12)NC(=O)[C@H](NC(=O)[C@H](Cc1c[nH]c2ccccc12)NC(=O)[C@H](NC(=O)[C@@H](NC(=O)[C@H](NC(=O)[C@H](C)NC(=O)[C@H](NC(=O)[C@H](C)NC(=O)CNC(=O)[C@@H](NC=O)C(C)C)C(C)C)C(C)C)C(C)C)C(C)C)C(C)C)C(C)C)C(=O)N[C@@H](Cc1c[nH]c2ccccc12)C(=O)NCCO [compound 2182] (For-VGA[dV]A[dV]V[dV]W[dV]W[dV]W[dL]W-NHCH2CH2OH),100.0%,++,1.28
CC(C)C[C@@H](NC(=O)[C@H](C)NC(=O)CNC(=O)[C@@H](NC=O)C(C)C)C(=O)N[C@@H](C)C(=O)N[C@H](CC(C)C)C(=O)N[C@H](C(=O)N[C@H](CC(C)C)C(=O)N[C@@H](Cc1c[nH]c2ccccc12)C(=O)N[C@H](CC(C)C)C(=O)N[C@@H](Cc1c[nH]c2ccccc12)C(=O)N[C@H](CC(C)C)C(=O)N[C@@H](Cc1c[nH]c2ccccc12)C(=O)N[C@@H](C(=O)N[C@@H](Cc1c[nH]c2ccccc12)C(=O)NCCO)C(C)C)C(C)C [compound 2205] (For-VGA[dL]A[dL]V[dL]W[dL]W[dL]W[dV]W-NHCH2CH2OH),0.0%,-,1.01
CC(C)C[C@@H](NC(=O)[C@H](C)NC(=O)[C@H](NC(=O)[C@H](C)NC(=O)CNC(=O)[C@@H](NC=O)C(C)C)C(C)C)C(=O)N[C@H](C(=O)N[C@H](CC(C)C)C(=O)N[C@@H](Cc1c[nH]c2ccccc12)C(=O)N[C@@H](C(=O)N[C@@H](Cc1c[nH]c2ccccc12)C(=O)N[C@@H](C(=O)N[C@@H](Cc1c[nH]c2ccccc12)C(=O)N[C@@H](C(=O)N[C@@H](Cc1c[nH]c2ccccc12)C(=O)NCCO)C(C)C)C(C)C)C(C)C)C(C)C [compound 2212] (For-VGA[dV]A[dL]V[dL]W[dV]W[dV]W[dV]W-NHCH2CH2OH),11.5%,+,1.18
CNC(=O)C[C@@H](NC(=O)[C@@H](NC(=O)[C@H](NC(=O)[C@H](C)NC(=O)[C@H](NC(=O)[C@H](C)NC(=O)CNC(=O)[C@@H](NC=O)C(C)C)C(C)C)C(C)C)C(C)C)C(=O)N[C@@H](Cc1c[nH]c2ccccc12)C(=O)N[C@H](CC(C)C)C(=O)N[C@@H](Cc1c[nH]c2ccccc12)C(=O)N[C@H](CC(C)C)C(=O)N[C@@H](Cc1c[nH]c2ccccc12)C(=O)N[C@H](CC(C)C)C(=O)N[C@@H](Cc1c[nH]c2ccccc12)C(=O)NCCO [compound 2218] (For-VGA[dV]A[dV]V[dD](NHMe)W[dL]W[dL]W[dL]W-NHCH2CH2OH),100.0%,-,1.32
CC(C)C[C@@H](NC(=O)[C@H](C)NC(=O)CNC(=O)[C@@H](NC=O)C(C)C)C(=O)N[C@@H](C)C(=O)N[C@@H](C(=O)N[C@H](C(=O)N[C@@H](C(=O)N[C@@H](Cc1c[nH]c2ccccc12)C(=O)N[C@H](CC(C)C)C(=O)N[C@@H](Cc1c[nH]c2ccccc12)C(=O)N[C@H](CC(C)C)C(=O)N[C@@H](Cc1c[nH]c2ccccc12)C(=O)N[C@@H](C(=O)N[C@@H](Cc1c[nH]c2ccccc12)C(=O)NCCO)C(C)C)[C@H](C)O)C(C)C)C(C)C [compound 2235] (For-VGA[dL]A[dV]V[dT]W[dL]W[dL]W[dV]W-NHCH2CH2OH),100.0%,+,1.01
